Two compounds from ChEMBL document CHEMBL1155947, “Discovery of a novel series of benzoic acid derivatives as potent and selective human beta3 adrenergic receptor agonists with good oral bioavailability. 3. Phenylethanolaminotetraline (PEAT) skeleton containing biphenyl or biphenyl ether moiety” (J Med Chem, 2008) can be followed below.

pEC50: −log10 of the molar value.

The nature of series [1]: Oral bioavailability in rat at 0.83 mg/kg. The settings on record: in vivo. Format: ADME, organism-based.
The nature of series [2]: Oral bioavailability in dog at 0.83 mg/kg. The settings on record: in vivo. Format: ADME, organism-based, Canis lupus familiaris.
Series [3] in a line: Oral bioavailability in monkey at 0.83 mg/kg. Format: ADME, organism-based, Macaca mulatta. Particulars: rhesus monkey, in vivo.
For series [4], the system named is Canis familiaris. Description: Inhibition of carbachol-induced increase of intravesical pressure in Beagle dog OAB model at 32 ug/kg,. Particulars: Canis lupus familiaris. Format: functional.
The nature of series [5]: Protein binding in Beagle dog serum at 32 ug/kg, iv. The format is ADME, organism-based, Canis lupus familiaris. Particulars: 0.032 mg/kg, read-out: PB (converted).
Series [6] has as its target Beta-3 adrenergic receptor (Homo sapiens, UniProt P13945). Description: Agonist activity at human cloned beta3 adrenergic receptor expressed in CHO cells assessed as cAMP accumulation. The format is functional, cell-based. A general note: Cyclic AMP is a second messenger, typically raised through Gs and lowered through Gi signalling.
The next series is filed under the species Homo sapiens. Description: Ratio of EC50 for human cloned beta-1 adrenergic receptor to EC50 for human cloned beta3 adrenergic receptor.
For series [7], the target named is Beta-2 adrenergic receptor (Homo sapiens, UniProt P07550). Description: Agonist activity at human beta2 adrenergic receptor expressed in CHO cells assessed as cAMP accumulation. Format: functional, cell-based.
Series [8] in a line: Cmax in dog at 0.2 mg/kg, po by cassette assay. Format: ADME, organism-based, Canis lupus familiaris. Set-up: dose 0.2 mg/kg, route oral. The settings on record: in vivo.
Series [9] in a line: AUC (0 to 24 hrs) in dog at 0.2 mg/kg, po by cassette assay. The settings on record: plasma. Set-up: time < 24 hr, dose 0.2 mg/kg, route oral. The format is ADME, organism-based, Canis lupus familiaris.
In series [10] the test system is Canis familiaris. Description: Ratio of Cmax for drug to Cmax for 3-[((7S)-7-{[(2R)-2-(3-Chlorophenyl)-2-hydroxyethyl]amino}-5,6,7,8-tetrahydro-2-naphthalenyl)oxy]benzoic acid hydrochloride in dog at 0.1 or 0.20 mg/kg, po by cassette dosing assay. The format is ADME, organism-based, Canis lupus familiaris. Set-up: dose 0.2 mg/kg, route oral. Particulars: in vivo, 0.2 mg/kg.

Series [11] concerns Canis familiaris. Description: Ratio of AUC for drug to AUC for 3-[((7S)-7-{[(2R)-2-(3-Chlorophenyl)-2-hydroxyethyl]amino}-5,6,7,8-tetrahydro-2-naphthalenyl)oxy]benzoic acid hydrochloride in dog at 0.1 or 0.20 mg/kg, po by cassette dosing assay. The format is ADME, organism-based, Canis lupus familiaris. Set-up: dose 0.2 mg/kg, route oral. Particulars: in vivo, 0.2 mg/kg.
The nature of series [12]: Cmax in monkey at 1.0 mg/kg, po by cassette assay. Particulars: rhesus monkey, in vivo. The format is ADME, organism-based, Macaca mulatta. Set-up: dose 1 mg/kg, route oral.
Series [13] in a line: AUC (0 to 24 hrs) in monkey at 1.0 mg/kg, po by cassette assay. Format: ADME, organism-based, Macaca mulatta. Set-up: time < 24 hr, dose 1 mg/kg, route oral. The settings on record: rhesus monkey, plasma.
The nature of series [14]: Cmax in rat at 1.0 mg/kg, po by cassette assay. Format: ADME, organism-based. Set-up: dose 1 mg/kg, route oral. The settings on record: in vivo.
A short description of series [15]: AUC (0 to 24 hrs) in rat at 1.0 mg/kg, po by cassette assay. The settings on record: plasma. Format: ADME, organism-based. Set-up: time < 24 hr, dose 1 mg/kg, route oral.
Series [16] is described as follows: Terminal half life in rat at 0.51 mg/kg, iv by cassette assay. Format: ADME, organism-based. The settings on record: in vivo. Set-up: dose 0.51 mg/kg, route intravenous.
Series [17] in a line: Total clearance in rat at 0.51 mg/kg, iv by cassette assay. Set-up: dose 0.51 mg/kg, route intravenous. Format: ADME, organism-based. The settings on record: in vivo.
A short description of series [18]: Oral bioavailability in rat at 0.51 mg/kg by cassette assay. Format: ADME, organism-based. The settings on record: in vivo.
Series [19] in a line: Terminal half life in monkey at 0.32 mg/kg, iv by cassette assay. The settings on record: rhesus monkey, in vivo. The format is ADME, organism-based, Macaca mulatta. Set-up: dose 0.32 mg/kg, route intravenous.
Series [20] in a line: Total clearance in monkey at 0.32 mg/kg, iv by cassette assay. Set-up: dose 0.32 mg/kg, route intravenous. The format is ADME, organism-based, Macaca mulatta. Particulars: rhesus monkey, in vivo.
The nature of series [21]: Oral bioavailability in monkey at 0.32 mg/kg by cassette assay. The format is ADME, organism-based, Macaca mulatta. Particulars: rhesus monkey, in vivo.
Series [22] is described as follows: Terminal half life in dog at 0.1 mg/kg, iv by cassette assay. Format: ADME, organism-based, Canis lupus familiaris. Set-up: dose 0.1 mg/kg, route intravenous. The settings on record: in vivo.
A short description of series [23]: Total clearance in dog at 0.1 mg/kg, iv by cassette assay. The settings on record: in vivo. The format is ADME, organism-based, Canis lupus familiaris. Set-up: dose 0.1 mg/kg, route intravenous.
The nature of series [24]: Oral bioavailability in dog at 0.1 mg/kg by cassette assay. The format is ADME, organism-based, Canis lupus familiaris. Particulars: in vivo.
Series [25] addresses Beta-3 adrenergic receptor (Canis lupus familiaris, UniProt O02662). Description: Agonist activity at dog beta3 adrenergic receptor expressed in CHO cells assessed as cAMP accumulation. Format: functional, cell-based.
Series [26] in a line: Selectivity for human beta3 adrenergic receptor over dog beta3 adrenergic receptor.
Series [27] deals with Beta-1 adrenergic receptor (Homo sapiens, UniProt P08588).
Chain of Beta-1 adrenergic receptor (P08588 whole entry): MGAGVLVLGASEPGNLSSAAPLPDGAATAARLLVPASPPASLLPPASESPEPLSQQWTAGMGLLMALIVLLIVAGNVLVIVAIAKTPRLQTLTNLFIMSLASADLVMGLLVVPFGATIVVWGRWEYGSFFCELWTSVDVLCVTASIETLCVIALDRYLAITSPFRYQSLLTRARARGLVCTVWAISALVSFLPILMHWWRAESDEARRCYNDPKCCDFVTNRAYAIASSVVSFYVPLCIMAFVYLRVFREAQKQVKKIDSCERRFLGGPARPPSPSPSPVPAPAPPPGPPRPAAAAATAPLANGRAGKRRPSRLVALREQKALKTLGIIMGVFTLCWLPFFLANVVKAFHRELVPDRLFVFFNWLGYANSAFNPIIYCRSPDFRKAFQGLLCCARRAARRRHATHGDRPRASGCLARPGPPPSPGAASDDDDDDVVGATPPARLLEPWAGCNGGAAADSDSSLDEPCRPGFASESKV
Description: Agonist activity at human cloned beta-1 adrenergic receptor expressed in CHO cells assessed as cAMP accumulation

Chain of Beta-3 adrenergic receptor (Canis lupus familiaris, UniProt O02662) (O02662 whole entry): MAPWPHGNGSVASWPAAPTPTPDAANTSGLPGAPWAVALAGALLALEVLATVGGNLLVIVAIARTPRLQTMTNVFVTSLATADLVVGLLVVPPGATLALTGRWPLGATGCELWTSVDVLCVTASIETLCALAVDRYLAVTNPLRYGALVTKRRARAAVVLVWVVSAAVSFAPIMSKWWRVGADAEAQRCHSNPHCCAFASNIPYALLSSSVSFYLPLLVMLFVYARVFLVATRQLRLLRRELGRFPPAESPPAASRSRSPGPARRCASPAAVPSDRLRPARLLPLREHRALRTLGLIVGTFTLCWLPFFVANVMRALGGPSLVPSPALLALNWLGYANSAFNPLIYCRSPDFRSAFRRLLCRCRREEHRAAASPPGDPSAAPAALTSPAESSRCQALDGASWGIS
Chain of Beta-3 adrenergic receptor (Homo sapiens, UniProt P13945) (P13945 whole entry): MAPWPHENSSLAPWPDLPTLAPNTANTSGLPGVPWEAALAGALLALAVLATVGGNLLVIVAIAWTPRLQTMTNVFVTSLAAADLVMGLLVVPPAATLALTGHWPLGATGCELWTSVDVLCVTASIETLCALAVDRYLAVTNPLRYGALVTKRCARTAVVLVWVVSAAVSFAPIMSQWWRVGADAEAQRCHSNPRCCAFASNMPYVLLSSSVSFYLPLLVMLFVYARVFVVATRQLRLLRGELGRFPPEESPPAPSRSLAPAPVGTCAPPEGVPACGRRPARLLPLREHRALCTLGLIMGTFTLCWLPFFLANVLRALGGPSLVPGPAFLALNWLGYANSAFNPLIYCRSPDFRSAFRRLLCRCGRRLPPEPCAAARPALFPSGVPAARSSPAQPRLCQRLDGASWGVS
Chain of Beta-2 adrenergic receptor (P07550 whole entry): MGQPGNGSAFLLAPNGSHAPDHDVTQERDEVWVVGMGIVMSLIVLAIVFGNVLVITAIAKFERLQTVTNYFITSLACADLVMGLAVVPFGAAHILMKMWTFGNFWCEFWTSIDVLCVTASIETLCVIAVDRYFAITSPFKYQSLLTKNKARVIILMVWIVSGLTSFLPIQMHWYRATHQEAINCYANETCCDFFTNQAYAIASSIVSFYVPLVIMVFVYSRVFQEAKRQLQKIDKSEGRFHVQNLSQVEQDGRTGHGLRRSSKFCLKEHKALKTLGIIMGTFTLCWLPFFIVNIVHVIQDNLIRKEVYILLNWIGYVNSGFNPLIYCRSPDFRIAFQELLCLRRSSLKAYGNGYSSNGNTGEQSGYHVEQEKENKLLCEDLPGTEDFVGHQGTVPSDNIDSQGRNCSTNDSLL

As to `CCOC(=O)COc1ccc2c(c1)C[C@@H](NC[C@H](O)c1cccc(Cl)c1)CCC2`, the bioavailability in [1] stood at 29%; in series [2], 73%; in series [3], 35%. For the same compound, the inhibition in vivo at 0.032 mg/kg in the series with Canis familiaris [4] is 40.8%. For the same compound, the fraction unbound in series [5] is 0.06.
As to `COc1ccc(Oc2ccc3c(c2)C[C@@H](NC[C@H](O)c2ccc(Cl)nc2)CC3)cc1C(=O)O`, the pEC50 was 8.44 in series [6], below 6.00 in [7], 7.34 in series [25] and below 6.00 in series [27]. Also, in the series filed under Homo sapiens, the Ratio EC50 was above 277. Moreover, the values for the Cmax in [8], in [12] and in series [14] were 64.4 ng/mL, 59 ng/mL and 164 ng/mL, respectively. Besides, the AUC(0-t) at 24 h in [9] was determined as 860 ng·h/mL; in [13], 313 ng·h/mL; in [15], 1940 ng·h/mL. In the series with Canis familiaris [10], the Ratio came to 0.5. The “Ratio AUC” value in the series with Canis familiaris [11] is 0.48. For the same compound, the half-life in series [16] is 15.3 h; in [19], 8.2 h; in series [22], 5.9 h. For the same compound, the figures for the clearance in series [17], in series [20] and in [23] were 2.5 mL/min/kg, 15.7 mL/min/kg and 3.1 mL/min/kg, respectively. Moreover, the bioavailability turned out to be 27.3% in series [18], 28.8% in [21] and 76.8% in series [24]. This compound also returned an inhibition in vivo at 0.032 mg/kg in the series on Canis familiaris [4] of 57%. Further, the fraction unbound in series [5] was 0.1. Further, the Selectivity ratio in series [26] worked out at 12.8.

One may read the bioavailability as dose-corrected exposure relative to a reference, in per cent. A word on the inhibition in vivo: it is the change of the read-out against control, counted positive when it falls. By pEC50 is commonly meant the negative decadic logarithm of the EC50, by convention in mol/L. A word on the Cmax: it is the highest concentration seen after dosing. Broadly, the AUC(0-t) is exposure summed from dosing to a finite time, without extrapolation to infinity. What is called half-life is how long it takes for the measured level to halve. The term clearance denotes the rate of elimination divided by the concentration.
